In ChEMBL document CHEMBL1148042, “Novel bioactive diterpenoids from Aframomum aulacocarpos” (1994):
Values after ≈ are worked out from the molar mass of the structure shown.

How the values were obtained:
Format in all cases: functional
L1210 = assay: Cytotoxicity against mouse L1210 cells; conditions: read-out: ED50 (the source's name)
Bacillus subtilis = assay: Antibacterial activity against Bacillus subtilis ATCC 6633 by serial dilution assay
Rhizomucor miehei = assay: Antifungal activity against Mucor miehei by plate diffusion assay

Row | MIC (Bacillus subtilis) [µg/mL] | MIC (Rhizomucor miehei) [µg/mL] | Structure (SMILES) | EC50 (L1210) [µg/mL]
1 | 25 (≈ 65.7 µM) | 50 (≈ 131 µM) | COC(=O)/C(=C/C[C@H]1[C@]2(CO2)C[C@@H](O)[C@H]2C(C)(C)[C@@H](O)CC[C@@]21C)C1CO1 (stereo partly drawn) [AULACOCARPIN B] | 25 (≈ 65.7 µM)
2 | 25 (≈ 68.6 µM) | 50 (≈ 137 µM) | COC(=O)/C(=C/C[C@H]1[C@@]2(CC[C@H]3C(C)(C)[C@@H](O)CC[C@@]31C)CO2)C1CO1 (stereo partly drawn) [AULACOCARPINE A] | –
3 | 25 (≈ 75.2 µM) | 50 (≈ 150 µM) | CC1(C)[C@@H](O)CC[C@]2(C)C3=C(CC[C@@H]12)CO[C@@H](C1=CCOC1=O)C3 [AULACOCARPINOLIDE] | 12.5 (≈ 37.6 µM)
